Measured values reported in US5478841A, “Fluorinated quinolones, process for their preparation and pharmaceutical preparations containing same” (Bouchara S.A., priority 1992, dated 1995).
Values after ≈ are worked out from the molar mass of the structure shown.

Legend:
S. aureus ATCC 25923 = assay: MIC/MBC, microdilution in Mueller-Hinton broth, S. aureus ATCC 25923; format: cell-based; settings: Staphylococcus aureus; for MIC: ATCC25923, 18 h at 37° C., about 10^6 bacteria/ml, read-out: MINIMAL INHIBITORY CONCENTRATION (MIC); for MBC: ATCC25923, read-out: MINIMAL BACTERICIDAL CONCENTRATION (MBC)
Experimental: (§1) The products were tested vis-a-vis 7 reference strains
Straphylococcus aureus ATCC 25923
(§2) The preparation of these mother solutions produced, varied according to the molecules as a function of solubility criteria.
(§3) The inoculation is carried out by adding to each cupule 10 μl of a dilution in physiological water of an 18 hour broth of heart/brain broth such that each cupule contains about 10^6 bacteria/ml.
(§4) The minimal inhibitory concentration is read as the first concentration of antibiotic giving no culture which is macroscopically visible after incubation for 18 hours at 37° C.

S. faecalis ATCC 25922 = assay: MIC/MBC, microdilution in Mueller-Hinton broth, S. faecalis; format: cell-based, Streptococcus faecalis; settings: Enterococcus faecalis, ATCC25922, 18 h, read-out: MINIMAL INHIBITORY CONCENTRATION (MIC)
Experimental: (§5) The products were tested vis-a-vis 7 reference strains […]
as §2, §3, §4

S. faecalis = assay: as above; format: cell-based, Streptococcus faecalis; settings: Enterococcus faecalis, ATCC25922, read-out: MINIMAL BACTERICIDAL CONCENTRATION (MBC)
Experimental: as §5, §2, §3, §4

E. coli ATCC 25922 = assay: MIC/MBC, microdilution in Mueller-Hinton broth, E. coli; format: cell-based; settings: Escherichia coli; for MIC: ATCC25922, 18 h at 37° C., about 10^6 bacteria/ml, read-out: MINIMAL INHIBITORY CONCENTRATION (MIC); for MBC: ATCC25922, read-out: MINIMAL BACTERICIDAL CONCENTRATION (MBC)
Experimental: as §1
Escherichia coli ATCC 25922
as §2, §3, §4

P. aeruginosa ATCC 22853 = assay: MIC/MBC, microdilution in Mueller-Hinton broth, P. aeruginosa; format: cell-based; settings: Pseudomonas aeruginosa; for MIC: ATCC22853, 18 h, read-out: MINIMAL INHIBITORY CONCENTRATION (MIC); for MBC: ATCC22853, read-out: MINIMAL BACTERICIDAL CONCENTRATION (MBC)
Experimental: as §1
Pseudomonas aeruginosa ATCC 22853
as §2, §3, §4

[1] = test system: Acinetobacter Baumanii ATCC 17904; assay: MIC/MBC, microdilution in Mueller-Hinton broth, Acinetobacter; format: cell-based; settings: Acinetobacter baumannii
Experimental: as §1
Acinetobacter calcoaceticus variety anitratum ATCC 17903
as §2, §3, §4

S. aureus CB-951 = assay: MIC/MBC, microdilution in Mueller-Hinton broth, S. aureus CB-951; format: cell-based; settings: Staphylococcus aureus, CB951, S. aureus CB-951, methicillino resistant, pefloxacino resistant
Experimental: as §1
Staphylococcus aureus CB 951
as §2, §3, §4

solubility in water = format: physicochemical; settings: hydrochloride, pale yellow crystals

Structure (SMILES)	MIC (S. aureus ATCC 25923) [µg/mL]	MBC (S. aureus ATCC 25923) [µg/mL]	MIC (S. faecalis ATCC 25922) [µg/mL]	MBC (S. faecalis) [µg/mL]	MIC (E. coli ATCC 25922) [µg/mL]	MBC (E. coli ATCC 25922) [µg/mL]	MIC (P. aeruginosa ATCC 22853) [µg/mL]	MBC (P. aeruginosa ATCC 22853) [µg/mL]	MIC ([1]; ATCC17904, 18 h, read-out: MINIMAL INHIBITORY CONCENTRATION (MIC)) [µg/mL]	MBC ([1]; ATCC17904, read-out: MINIMAL BACTERICIDAL CONCENTRATION (MBC)) [µg/mL]	MIC (S. aureus CB-951; 18 h at 37° C., about 10^6 bacteria/ml, read-out: MINIMAL INHIBITORY CONCENTRATION (MIC)) [µg/mL]	MBC (S. aureus CB-951; read-out: MINIMAL BACTERICIDAL CONCENTRATION (MBC)) [µg/mL]	solubility in water (solubility in water)
NCC1CCN(c2c(F)cc3c(=O)c(C(=O)O)cn(C4CC4)c3c2F)CC1 [Compound 1, 6,8-difluoro-7-[(4-aminomethyl)-1-piperdinyl]-1-(1-cyclopropyl)-4-oxo-1,4-dihydroquinolinyl-3-carboxylic acid]	0.06 (≈ 0.159 µM)	0.06 (≈ 0.159 µM)	1 (≈ 2.65 µM)	1 (≈ 2.65 µM)	2 (≈ 5.3 µM)	4 (≈ 10.6 µM)	> 16	> 16	0.03 (≈ 0.0795 µM)	0.03 (≈ 0.0795 µM)	0.25 (≈ 0.662 µM)	0.25 (≈ 0.662 µM)	moderately soluble in water
NCC1CCN(c2cc3c(cc2F)c(=O)c(C(=O)O)cn3C2CC2)CC1 [Compound 5, 6-fluoro-1-cyclopropyl-7-((4-aminomethyl)-1-piperidinyl)-quinolone-3-carboxylic acid]	0.25 (≈ 0.696 µM)	0.5 (≈ 1.39 µM)			0.25 (≈ 0.696 µM)	0.5 (≈ 1.39 µM)							
CC(C)n1cc(C(=O)O)c(=O)c2cc(F)c(N3CCC(CN)CC3)c(F)c21 [Compound 7, 6,8-difluoro-1-isopropyl-7-((4-aminomethyl)-1-piperidinyl)-quinolone-3-carboxylic acid]	3.2 (≈ 8.43 µM)	6.4 (≈ 16.9 µM)	3.2 (≈ 8.43 µM)	25.6 (≈ 67.5 µM)	1.6 (≈ 4.22 µM)	1.6 (≈ 4.22 µM)	25.6 (≈ 67.5 µM)	> 51.2					
